Reference: PMC10218704, “A Novel Blood–Brain Barrier-Penetrating and Vascular-Targeting Chimeric Peptide Inhibits Glioma Angiogenesis” (International Journal of Molecular Sciences, 2023)
Ends that are not written are not given here.

Key:
[1] = test system: HUVECs; experiment: Annexin V-FITC/PI staining, flow cytometry (apoptosis); assay type: cell-based, human; settings: 320 μmol/L, 24 h; for induction of apoptosis: Hoechst and Annexin V-FITC/PI staining; for total apoptotic rate (Q1-UR and Q1-LR): mean ± SD, n = 3, control (7.17 ± 1.42)%
Experimental: HUVECs were seeded into 6-well culture plates (3 × 10^5 cells/well). […] After discarding the supernatant and washing with cold PBS, the cells were fixed in 4% paraformaldehyde and stained with Hoechst 33,258 for 10 min. Then, the cells were washed with cold PBS and observed using an inverted fluorescence microscope. HUVECs were treated with different peptides (the methods were the same as the Hoechst staining). After 24 h, cells were collected by trypsin digestion and washed with PBS. Annexin V-FITC/PI staining was conducted according to the manufacturer’s instructions for the Apoptosis Detection Kit. Briefly, 195 μL of Annexin V-FITC/PI dilution buffer was added to resuspend the cells. Then, 5 μL of Annexin V-FITC and 10 μL of PI staining solutions were added and gently mixed with the cells. After incubation at room temperature in the dark for 10 min, the apoptotic cells were detected by flow cytometry.

[2] = test system: NRP-1; set-up: method as in 2 sources, ref 30 = [30]; PMID 33209022; doi:10.2147/IJN.S270208; 30. Lu L. Chen H. Wang L. Zhao L. Cheng Y. Wang A. Wang F. Zhang X. A Dual Receptor Targeting- and BBB Penetrating- Peptide Functionalized Polyethyleneimine Nanocomplex for Secretory Endostatin Gene D ||| ref 19-22 = [19]; PMID 10747021; doi:10.1093/emboj/19.7.1525; 19. Binétruy-Tournaire R. Demangel C. Malavaud B. Vassy R. Rouyre S. Kraemer M. Plouët J. Derbin C. Perret G. Mazié J.C. Identification of a peptide blocking vascular endothelial growth factor (VEGF)- || [20]; PMID 16959272; doi:10.1016/j.lfs.2006.08.005; 20. Starzec A. Vassy R. Martin A. Lecouvey M. Di Benedetto M. Crépin M. Perret G.Y. Antiangiogenic and antitumor activities of peptide inhibiting the vascular endothelial growth factor binding to neur || [21]; PMID 17983687; doi:10.1016/j.peptides.2007.09.013; 21. Starzec A. Ladam P. Vassy R. Badache S. Bouchemal N. Navaza A. du Penhoat C.H. Perret G.Y. Structure-function analysis of the antiangiogenic ATWLPPR peptide inhibiting VEGF (165) binding to neurop || [22]; PMID 27693752; doi:10.1016/j.jconrel.2016.09.035; 22. Ying M. Shen Q. Zhan C. Wei X. Gao J. Xie C. Yao B. Lu W. A stabilized peptide ligand for multifunctional glioma targeted drug delivery J. Control. Release 2016 243 86 98 10.1016/j.jconrel.2016.09; settings: cited from earlier work
Source text: (§1) ATWLPPR (AT7), which was identified by a mutated phage lib ... || Intracranial delivery of therapeutic agents is primarily hindered by the BBB [24]. The intercellular tight junction caused by the BBB restricts the passive diffusion of almost all large-molecule and more than 98% of small-molecule drugs from peripheral blood circulation to the brain tissue.

[3] = test system: VEGFR-2; set-up: method as in 2 sources, ref 30 = [30]; PMID 33209022; doi:10.2147/IJN.S270208; 30. Lu L. Chen H. Wang L. Zhao L. Cheng Y. Wang A. Wang F. Zhang X. A Dual Receptor Targeting- and BBB Penetrating- Peptide Functionalized Polyethyleneimine Nanocomplex for Secretory Endostatin Gene D ||| ref 19-22 = [19]; PMID 10747021; doi:10.1093/emboj/19.7.1525; 19. Binétruy-Tournaire R. Demangel C. Malavaud B. Vassy R. Rouyre S. Kraemer M. Plouët J. Derbin C. Perret G. Mazié J.C. Identification of a peptide blocking vascular endothelial growth factor (VEGF)- || [20]; PMID 16959272; doi:10.1016/j.lfs.2006.08.005; 20. Starzec A. Vassy R. Martin A. Lecouvey M. Di Benedetto M. Crépin M. Perret G.Y. Antiangiogenic and antitumor activities of peptide inhibiting the vascular endothelial growth factor binding to neur || [21]; PMID 17983687; doi:10.1016/j.peptides.2007.09.013; 21. Starzec A. Ladam P. Vassy R. Badache S. Bouchemal N. Navaza A. du Penhoat C.H. Perret G.Y. Structure-function analysis of the antiangiogenic ATWLPPR peptide inhibiting VEGF (165) binding to neurop || [22]; PMID 27693752; doi:10.1016/j.jconrel.2016.09.035; 22. Ying M. Shen Q. Zhan C. Wei X. Gao J. Xie C. Yao B. Lu W. A stabilized peptide ligand for multifunctional glioma targeted drug delivery J. Control. Release 2016 243 86 98 10.1016/j.jconrel.2016.09; settings: cited from earlier work
Source text: as §1

[4] = test system: zebrafish embryo intersegmental vessel; experiment: Zebrafish embryo intersegmental vessel angiogenesis; assay type: in vivo; settings: 25 µmol/L; 24 h; 28 °C; fluorescence microscope; vs control; n = 3
Experimental: After a certain period, healthy, sexually mature female and male zebrafish were mated in a 1:1 ratio. After 24 h, the fertilized eggs were removed, disinfected, and washed, and then placed in embryo culture water and cultured in an incubator at 28 °C for 24 h. The fertilized eggs were washed with chain enzyme protease E solution (1 mg/mL) to remove the egg membrane on the surface and placed under a microscope to observe and select the normally developing zebrafish embryos, and then placed into a 24-well plate. […] The control group was added with the same volume of embryo culture water, and then placed in an incubator at 28 °C for 24 h. Zebrafish embryos were randomly removed from each group and observed under a fluorescence microscope. The total length of zebrafish internode vessels was calculated and counted.

[5] = test system: intracranial U87-mCherry-luc glioma; experiment: In vivo anti-glioma study (bioluminescence); set-up: species or system nude mice; settings: 20 mg/kg/day i.v. (tail vein), 11 days; days 4, 7, 11, 14; n = 5
Experimental: The orthotopic U87-mCherry-luc glioma-bearing nude mice were randomly assigned to 6 groups (n = 5) according to the bioluminescence intensity of glioma measured on day 4. […] The bioluminescence intensity was measured on days 4, 7, 11, and 14, respectively. Nude mice were weighed daily. On day 15, the mice were sacrificed, and the glioma-bearing brains were harvested. The brain tissues were fixed with 4.0% paraformaldehyde, embedded in paraffin, and cut into slices. The TUNEL staining and CD31 immunohistochemical staining were conducted according to standard histological procedures.

[6] = test system: NRP-1; settings: for inhibition of binding of VEGF-A165 and NRP-1: peptide 1000 nmol/L
Experimental: The whole operation was conducted on a Biacore S200 instrument. The recombinant VEGFR-2 or NRP-1 proteins were firstly immobilized on a CM5 chip by an amine-coupling reaction. VEGF-A165 ligands with gradient concentrations in the absence or presence of different peptides were then flowed over the CM5 chip. The binding of VEGF-A165 ligands to the immobilized recombinant VEGFR-2 or NRP-1 proteins led to an increase of the refractive index on the surface of the chip, which could be converted into the fluctuation of electrical signals in the response (RU).
The CM5 sensor chip was obtained from GE Healthcare Life Sciences (Uppsala, Sweden). Purified recombinant human VEGFR-2 and NRP-1 receptor proteins were purchased from R&D Systems (Minneapolis, MN, USA).
The SPR assay was performed using the Biacore S200 instrument (GE Healthcare, Uppsala, Sweden). Firstly, the CM5 sensor chip was activated with EDC/NHS. Then, the recombinant VEGFR-2 and NRP-1 proteins were immobilized on the surface of the sensor chip according to the operating instructions of amine coupling. VEGF-A165 was diluted to 8, 4, 2, 1, and 0.5 nmol/L in different concentrations of peptide solution dissolved by HBS-EP buffer (0, 0.016, 0.064, 0.256, and 1 μmol/L, respectively). The Kinetics/Affinity program was selected, and the automatic continuous injection program was set. The injection flow rate was 30 μL/min, the injection time was 120 s, and the dissociation time was 220 s. At the same time, zero-concentration injection wells and 0.5 nmol/L repeat-concentration injection wells of VEGF-A165 were set. At the end of each injection, the channels were flushed with glycine-HCl solution for 30 s until response values were returned to baseline.

[7] = VEGF-A165 0.5-8 nmol/L, CM5 chip, HBS-EP

CC(C)C[C@H](NC(=O)[C@H](Cc1c[nH]c2ccccc12)NC(=O)[C@@H](NC(=O)[C@H](C)NC(=O)[C@H](CS)NC(=O)[C@H](CCCNC(=N)N)NC(=O)[C@H](CCCNC(=N)N)NC(=O)[C@H](CCCNC(=N)N)NC(=O)[C@H](CCC(N)=O)NC(=O)[C@H](CCCNC(=N)N)NC(=O)[C@H](CCCNC(=N)N)NC(=O)[C@H](CCCCN)NC(=O)[C@H](CCCCN)NC(=O)[C@@H](N)CCCNC(=N)N)[C@@H](C)O)C(=O)N1CCC[C@H]1C(=O)N1CCC[C@H]1C(=O)N[C@@H](CCCNC(=N)N)C(=O)O [TAT-AT7]
induction of apoptosis [1]: strongly induced HUVECs’ apoptosis
total apoptotic rate (Q1-UR and Q1-LR) [1]: 29.56 ± 3.07%
affinity to NRP-1 ([2]; compared with TAT or AT7 alone): higher affinity to VEGFR-2 and NRP-1
affinity to VEGFR-2 ([3]; compared with TAT or AT7 alone): higher affinity to VEGFR-2 and NRP-1
intersegmental vascular growth [4]: significantly inhibit the generation of the zebrafish embryo intersegmental vessel
glioma growth (bioluminescence) [5]: significantly suppressed glioma growth on days 11 and 14
inhibition of VEGF-A165 binding to NRP-1 relative to VEGFR-2 ([6]; SPR, NRP-1 compared with VEGFR-2): stronger inhibitory effect on the binding of VEGF-A165 to NRP-1
inhibitory effect on VEGF-A165/NRP-1 binding, comparison between peptides [6, 7]: much higher than that of AT7 and TAT
binding curve of VEGF-A165 and NRP-1 ([6]; peptide 256 nmol/L, VEGF-A165 0.5-8 nmol/L, CM5 chip, HBS-EP): tended to be a zero baseline
inhibition of binding of VEGF-A165 and NRP-1 [6, 7]: completely inhibited the binding of VEGF-A165 and NRP-1

ATWLPPR [AT7, ATWLPPR]
induction of apoptosis [1]: no obvious effect of promoting apoptosis
total apoptotic rate (Q1-UR and Q1-LR) [1]: 7.80 ± 1.50%
binding to NRP-1 [2]: able to bind to VEGFR-2 and NRP-1
binding to VEGFR-2 [3]: able to bind to VEGFR-2 and NRP-1
intersegmental vascular growth [4]: no obvious effect on intersegmental vascular growth
glioma growth (bioluminescence) [5]: no significant difference compared to the control group
inhibition of binding of VEGF-A165 and NRP-1 [6, 7]: displayed inhibitory effects on the binding of VEGF-A165 and NRP-1, but it did not completely inhibit the binding
